From ChEMBL document CHEMBL5724914, “Linking interpersonal differences in gut microbiota composition and drug biotransformation activity” (2024)

Columns and labels:
[1] = human gut metagenome, 24 h, 2 µM
[2] = The drug is tested on Z-002 corresponding to rabbit gut metagenome with ENA study accession number: PRJEB37062 and ENA sample accession number: ERS12561802 for biotransformation under anaerobic condition. The drug concentrations were measured over 9 timepoints collected between 0 and 24 hours of incubation by liquid-chromatography-coupled mass spectrometry (LC–MS); conditions: 2 µM
[3] = The drug is tested on WLS-082 corresponding to human gut metagenome with ENA study accession number: PRJEB37062 and ENA sample accession number: ERS12561751 for biotransformation under anaerobic condition. The drug concentrations were measured over 9 timepoints collected between 0 and 24 hours of incubation by liquid-chromatography-coupled mass spectrometry (LC–MS); conditions: 2 µM
[4] = human gut metagenome, 24 h, 2 µM; remark: listed apart in the source
[5] = human gut metagenome, 24 h, 2 µM; remark: listed apart in the source
[6] = The drug is tested on WLS-006 corresponding to human gut metagenome with ENA study accession number: PRJEB37062 and ENA sample accession number: ERS12561741 for biotransformation under anaerobic condition. The drug concentrations were measured over 9 timepoints collected between 0 and 24 hours of incubation by liquid-chromatography-coupled mass spectrometry (LC–MS); conditions: 2 µM
[7] = The drug is tested on Z-018 corresponding to pig gut metagenome with ENA study accession number: PRJEB37062 and ENA sample accession number: ERS12561817 for biotransformation under anaerobic condition. The drug concentrations were measured over 9 timepoints collected between 0 and 24 hours of incubation by liquid-chromatography-coupled mass spectrometry (LC–MS); conditions: 2 µM
[8] = The drug is tested on Z-007 corresponding to rat gut metagenome with ENA study accession number: PRJEB37062 and ENA sample accession number: ERS12561807 for biotransformation under anaerobic condition. The drug concentrations were measured over 9 timepoints collected between 0 and 24 hours of incubation by liquid-chromatography-coupled mass spectrometry (LC–MS); conditions: 2 µM
[9] = human gut metagenome, 24 h, 2 µM; remark: listed apart in the source
[10] = human gut metagenome, 24 h, 2 µM; remark: listed apart in the source
[11] = The drug is tested on WLS-170 corresponding to human gut metagenome with ENA study accession number: PRJEB37062 and ENA sample accession number: ERS12561762 for biotransformation under anaerobic condition. The drug concentrations were measured over 9 timepoints collected between 0 and 24 hours of incubation by liquid-chromatography-coupled mass spectrometry (LC–MS); conditions: 2 µM
[12] = human gut metagenome, 24 h, 2 µM; remark: listed apart in the source
[13] = human gut metagenome, 24 h, 2 µM; remark: listed apart in the source
[14] = The drug is tested on WLS-052 corresponding to human gut metagenome with ENA study accession number: PRJEB37062 and ENA sample accession number: ERS12561747 for biotransformation under anaerobic condition. The drug concentrations were measured over 9 timepoints collected between 0 and 24 hours of incubation by liquid-chromatography-coupled mass spectrometry (LC–MS); conditions: 2 µM
[15] = The drug is tested on Z-020 corresponding to rabbit gut metagenome with ENA study accession number: PRJEB37062 and ENA sample accession number: ERS12561819 for biotransformation under anaerobic condition. The drug concentrations were measured over 9 timepoints collected between 0 and 24 hours of incubation by liquid-chromatography-coupled mass spectrometry (LC–MS); conditions: 2 µM
[16] = human gut metagenome, 24 h, 2 µM; remark: listed apart in the source
[17] = human gut metagenome, 24 h, 2 µM; remark: listed apart in the source
[18] = human gut metagenome, 24 h, 2 µM; remark: listed apart in the source
[19] = The drug is tested on WLS-098 corresponding to human gut metagenome with ENA study accession number: PRJEB37062 and ENA sample accession number: ERS12561754 for biotransformation under anaerobic condition. The drug concentrations were measured over 9 timepoints collected between 0 and 24 hours of incubation by liquid-chromatography-coupled mass spectrometry (LC–MS); conditions: 2 µM
[20] = The drug is tested on Z-023 corresponding to metagenome with ENA study accession number: PRJEB37062 and ENA sample accession number: ERS12561822 for biotransformation under anaerobic condition. The drug concentrations were measured over 9 timepoints collected between 0 and 24 hours of incubation by liquid-chromatography-coupled mass spectrometry (LC–MS); conditions: 2 µM
Also: call rule not given here.

Compound	Bacterial Biotransformation [1]	Bacterial Biotransformation [2]	Bacterial Biotransformation [3]	Bacterial Biotransformation [4]	Bacterial Biotransformation [5]	Bacterial Biotransformation [6]	Bacterial Biotransformation [7]	Bacterial Biotransformation [8]	Bacterial Biotransformation [9]	Bacterial Biotransformation [10]	Bacterial Biotransformation [11]	Bacterial Biotransformation [12]	Bacterial Biotransformation [13]	Bacterial Biotransformation [14]	Bacterial Biotransformation [15]	Bacterial Biotransformation [16]	Bacterial Biotransformation [17]	Bacterial Biotransformation [18]	Bacterial Biotransformation [19]	Bacterial Biotransformation [20]
CC(=O)OCC(=O)[C@@]12N=C(C)O[C@@H]1C[C@H]1[C@@H]3CCC4=CC(=O)C=C[C@]4(C)[C@H]3[C@@H](O)C[C@@]12C [DEFLAZACORT]	Compound metabolized	Compound metabolized	Compound metabolized	Compound metabolized	Compound metabolized	Compound metabolized	Compound metabolized	Compound metabolized	Compound metabolized	Compound metabolized	Compound metabolized	Compound metabolized	Compound metabolized	Compound metabolized	Compound metabolized	Compound metabolized	Compound metabolized	Compound metabolized	Compound metabolized	Compound metabolized
CN(C)CC(c1ccc(O)cc1)C1(O)CCCCC1.O=C(O)CCC(=O)O (stereo not given) [DESVENLAFAXINE SUCCINATE]	Compound NOT metabolized	Compound NOT metabolized	Compound NOT metabolized	Compound NOT metabolized	Compound NOT metabolized	Compound NOT metabolized	Compound NOT metabolized	Compound NOT metabolized	Compound NOT metabolized	Compound NOT metabolized	Compound NOT metabolized	Compound NOT metabolized	Compound NOT metabolized	Compound NOT metabolized	Compound NOT metabolized	Compound NOT metabolized	Compound NOT metabolized	Compound NOT metabolized	Compound NOT metabolized	Compound NOT metabolized
CN1CCN(C(=O)O[C@H]2c3nccnc3C(=O)N2c2ccc(Cl)cn2)CC1 [ESZOPICLONE]	Compound NOT metabolized	Compound NOT metabolized	Compound NOT metabolized	Compound NOT metabolized	Compound NOT metabolized	Compound NOT metabolized	Compound NOT metabolized	Compound NOT metabolized	Compound NOT metabolized	Compound NOT metabolized	Compound NOT metabolized	Compound NOT metabolized	Compound NOT metabolized	Compound NOT metabolized	Compound NOT metabolized	Compound NOT metabolized	Compound NOT metabolized	Compound NOT metabolized	Compound NOT metabolized	Compound NOT metabolized
O=C1[C@H](CC[C@H](O)c2ccc(F)cc2)[C@@H](c2ccc(O)cc2)N1c1ccc(F)cc1 [EZETIMIBE]	Compound NOT metabolized	Compound NOT metabolized	Compound metabolized	Compound NOT metabolized	Compound NOT metabolized	Compound metabolized	Compound NOT metabolized	Compound NOT metabolized	Compound NOT metabolized	Compound NOT metabolized	Compound metabolized	Compound NOT metabolized	Compound NOT metabolized	Compound NOT metabolized	Compound NOT metabolized	Compound metabolized	Compound metabolized	Compound NOT metabolized	Compound metabolized	Compound metabolized
CC(C)OC(=O)C(C)(C)Oc1ccc(C(=O)c2ccc(Cl)cc2)cc1 [FENOFIBRATE]	Compound metabolized	Compound metabolized	Compound NOT metabolized	Compound metabolized	Compound metabolized	Compound metabolized	Compound metabolized	Compound metabolized	Compound metabolized	Compound metabolized	Compound metabolized	Compound metabolized	Compound metabolized	Compound NOT metabolized	Compound metabolized	Compound NOT metabolized	Compound NOT metabolized	Compound metabolized	Compound metabolized	Compound metabolized
